Target: T1, β1 isozyme of PKC from rat brain (Rattus norvegicus, UniProt P68403)
T1 construct: β1 isozyme of PKC from rat brain; from tissue; host or cells: rat brain
Assay: Protein kinase C inhibition assay (32P incorporation from γ-32P ATP into synthetic peptide substrate)
Type: biochemical
Conditions: activated by 5×10^-6 M diC8 and 1 μg/mL phosphatidylserine, 50 μM ATP, read-out: IC50 (concentration necessary to achieve 50% inhibition of PKC)
Protocol: In vitro activity for protein kinase C inhibition, is quantitated by measuring incorporation of […] from γ-^32 P ATP into synthetic peptide substrates.
Protein Kinase C (PKC) inhibitory activity is quantitated by measuring incorporation of ^32 P from γ-^32 P ATP into synthetic peptide substrates. The inhibitory potential is measured using the β1 isozyme of PKC from rat brain and the synthetic peptide substrate ala-lys-arg-arg-arg-leu-ser-ser-leu-arg-ala.
A reaction mixture containing 25 mM Tris-HCl, pH 7.5, 2.5 mM Mg(NO3), 1.0 mM EGTA, 20 μM substrate, 1 μg/mL phosphatidlserine (PS), 5×10 ^-6 M diacylglycerol(di-C8), and 50 μM ATP is spiked with γ-^32 P ATP (>5,000 Ci/mmol) to provide approximately 10^6 CPM per reaction and 0.08 μg/mL PKC in a 50 μl volume per well. The assay is run with or without test compound, added at various concentrations. After five minutes incubation at room temperature, the reaction is stopped by the addition of 0.2V of a 50% TCA solution. A 30 μl sample from each well (control and test compound) is then spotted onto Whatman P-81 ion exchange chromatography paper, and 32-P incorporation is then counted on a Beckman LS 5000 TA liquid scintillation counter. […]
% Inhibition=1.0 -[(sample CPM-basal CPM)/(total CPM-basal CPM)]×100 and the concentration necessary to achieve 50% Inhibition is determined.

T1 sequence (P68403 whole entry): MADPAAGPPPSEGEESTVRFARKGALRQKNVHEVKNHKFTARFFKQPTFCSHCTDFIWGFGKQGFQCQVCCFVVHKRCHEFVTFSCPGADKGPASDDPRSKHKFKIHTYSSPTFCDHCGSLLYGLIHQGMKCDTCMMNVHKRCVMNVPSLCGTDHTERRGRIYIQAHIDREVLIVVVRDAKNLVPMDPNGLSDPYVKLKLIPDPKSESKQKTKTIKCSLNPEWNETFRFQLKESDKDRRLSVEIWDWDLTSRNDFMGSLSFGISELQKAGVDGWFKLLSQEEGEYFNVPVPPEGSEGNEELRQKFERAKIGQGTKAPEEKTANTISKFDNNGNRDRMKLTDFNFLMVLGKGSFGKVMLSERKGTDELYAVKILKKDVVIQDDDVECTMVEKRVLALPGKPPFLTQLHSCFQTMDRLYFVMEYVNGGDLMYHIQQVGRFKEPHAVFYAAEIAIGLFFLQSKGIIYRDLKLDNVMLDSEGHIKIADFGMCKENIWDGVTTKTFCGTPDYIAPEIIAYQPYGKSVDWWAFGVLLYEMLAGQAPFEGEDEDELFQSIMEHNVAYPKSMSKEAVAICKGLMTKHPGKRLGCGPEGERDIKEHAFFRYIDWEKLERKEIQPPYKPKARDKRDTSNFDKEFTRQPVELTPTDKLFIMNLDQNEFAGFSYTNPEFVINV

IC50: 30 nM
SMILES: CNCCCn1c2ccccc2c2c3c(c(-c4ccsc4)cc21)C(=O)NC3=O [1,3-dioxo-6-(3-methylaminopropyl)-1,2,3,6-tetrahydro-4-(thiophen-3-yl)-pyrrolo[3,4-c]carbazole]
